Earlier results as cited in patent publication US20030099708A1, “Printing or dispensing a suspension such as three-dimensional printing of dosage forms” (Therics, Inc, priority 2001, published 2003).

Conditions: statement in words, no test described

CC[C@@]1(O)C(=O)OCc2c1cc1n(c2=O)Cc2cc3ccccc3nc2-1 [camptothecin]
solubility in water: substantially insoluble
